Reference: patent US11955208B2, “Computational systems and methods for improving the accuracy of drug toxicity predictions” (Cornell University, priority 2016, dated 2024)

What was measured:
[1] = test system: breast cancer patients; conditions: recent clinical trials; cited from earlier work
[2] = in vivo; cited from earlier work
[3] = biological target: T1, DRD2L (Homo sapiens, UniProt P14416)
[4] = biological target: T1, DRD2L; experiment: antagonism of arrestin recruitment to DRD2L, Gaddam/Schild EC50 shift analysis; format: cell-based; set-up: expressed in transfected cells; conditions: dopamine completely reversed dose-dependent antagonism of up to 100 uM ONC201
Description: (§1) To test the target prediction, in vitro profiling of GPCR activity using a hetereologous reporter assay for arrestin recruitment, a hallmark of GPCR activation was performed.

[5] = test system: other GPCRs; experiment: GPCR profiling, heterologous reporter assay for arrestin recruitment; format: cell-based; conditions: under the evaluated conditions
Description: as §1

[6] = test system: D1-like (DRD1/5) subfamily of dopamine receptors; experiment: as above; format: cell-based
Description: as §1

[7] = test system: short and long isoforms of DRD2; conditions: arrestin recruitment
Description: as §1

[8] = test system: D2-like (DRD2/3/4) subfamily of dopamine receptors; conditions: arrestin recruitment
Description: as §1

[9] = test system: nuclear hormone receptors, the kinome, or other drug targets of FDA-approved cancer therapies

T1 sequence (P14416 whole entry): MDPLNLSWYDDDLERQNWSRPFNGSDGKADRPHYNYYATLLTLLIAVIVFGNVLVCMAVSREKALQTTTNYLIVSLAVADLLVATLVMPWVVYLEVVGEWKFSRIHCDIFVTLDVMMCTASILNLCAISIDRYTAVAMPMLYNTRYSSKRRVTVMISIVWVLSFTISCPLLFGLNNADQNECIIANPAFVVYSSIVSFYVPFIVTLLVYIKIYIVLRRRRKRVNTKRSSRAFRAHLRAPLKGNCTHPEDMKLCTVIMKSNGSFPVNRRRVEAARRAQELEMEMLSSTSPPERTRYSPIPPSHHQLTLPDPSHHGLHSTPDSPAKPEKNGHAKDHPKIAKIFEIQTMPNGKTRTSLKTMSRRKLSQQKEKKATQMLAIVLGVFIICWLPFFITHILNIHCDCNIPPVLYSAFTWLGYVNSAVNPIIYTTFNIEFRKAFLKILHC

C=C1C[C@@H]2CC[C@@]34C[C@H]5O[C@H]6[C@@H](O3)[C@H]3O[C@H](CC[C@@H]3O[C@H]6[C@H]5O4)CC(=O)C[C@@H]3[C@@H](OC)[C@@H](C[C@H](O)CN)O[C@H]3C[C@H]3O[C@@H](CC[C@@H]1O2)C[C@@H](C)C3=C [Eribulin]
breast cancer patients showing any detectable response after treatment [1]: < 50%

CC(=O)O[C@@]12CO[C@@H]1C[C@H](O)[C@@]1(C)C(=O)[C@H](O)C3=C(C)[C@@H](OC(=O)[C@H](O)[C@@H](NC(=O)OC(C)(C)C)c4ccccc4)C[C@@](O)([C@@H](OC(=O)c4ccccc4)[C@H]21)C3(C)C [docetaxel]
associated adverse event [2]: neutropenia

Cc1ccccc1CN1C(=O)C2=C(CCN(Cc3ccccc3)C2)N2CCN=C12 [ONC201]
cAMP modulation in response to compound [3]: Confirmatory results | mode of antagonism of DRD2L [4]: direct, competitive antagonism | antagonism of other GPCRs [5]: no observed antagonism | antagonism of D1-like dopamine receptors [6]: not D1-like | antagonism of DRD2 short and long isoforms [7]: antagonized | antagonism of D2-like dopamine receptors [8]: selectively antagonizes | interactions with nuclear hormone receptors, kinome, other cancer drug targets [9]: no significant interactions

CC(C)C[C@H](NC(=O)[C@H](Cc1ccccc1)NC(=O)c1cnccn1)B(O)O [bortezomib]
associated adverse event [2]: peripheral neuropathy

CN(CCOc1ccc(CC2SC(=O)NC2=O)cc1)c1ccccn1 (centres unmarked) [rosiglitazone]
associated adverse event [2]: elevated risk of heart attack
